# Results as given in patent US20240352066A1, “ANTIMICROBIAL COMPOUNDS AND THE METHOD OF USE” (priority 2021, published 2024).
# Where a SMILES comes first, the peptide text is derived from it. [ ]: non-standard residue; d: D form. NCyclohexylmethylGly = O=C(O)CNCC1CCCCC1; N(tridecyl)Gly = CCCCCCCCCCCCCNCC(=O)O; Gly(N-2-aminoethyl) = NCCNCC(=O)O; Gly(N-cHex) = O=C(O)CNC1CCCCC1; Gly(N-cPent) = O=C(O)CNC1CCCC1; N(iPr)Gly = CC(C)NCC(=O)O; NPhGly = O=C(O)CNc1ccccc1; NHexGly = CCCCCCNCC(=O)O; Nlys = NCCCCNCC(=O)O
# Tests used:
# [1] = Mammalian cytotoxicity, MTT, HepG2; format: cell-based, human; details: human, HepG2 hepatocellular carcinoma cells
# Protocol: (§1) Hepatocellular carcinoma (HepG2), mouse fibroblast (3T3), human lung (HPL1A), and human keratinocyte (HaCat) cells were cultured in Dulbecco modified eagle media (DMEM) containing 10% fetal bovine serum (FBS) and 1% penicillin, streptomycin, and glutamine (PSG) at 37° C. and 5% CO2. Cells were collected and adjusted to […] to 4×10^5 cells/mL in phenol-red free DMEM and plated (100 μL) 96 well plates. 2-fold serial dilutions of 10× peptoid (11.1 μL) were added to each well in triplicate. Water (vehicle) was used as a negative control. Plates were incubated at 37° C. in 5% CO2 for 72 hours. Thiazolyl blue tetrazolium bromide (MTT) was added to each well (5 mg/mL; 20 μL) and incubated for 3 hours. Media was removed, DMSO (100 μL) was added, and plates were incubated at 37° C. for 10 minutes. Plates were read on a SpectraMax M5 plate reader (Abs. 570 nm). The concentration of compound resulting in a 50% reduction in growth compared to control (toxicity dose 50%; TD50) was determined using GraFit. This procedure was repeated three times on separate days.
# (§2) Cytotoxicity against HepG2 hepatocellular carcinoma cells was done as previously described (Green et al. ACS infectious diseases, (2022); Corson et al. ACS medicinal chemistry letters 7 12, 1139-1144 (2016)). HepG2 cells were maintained in culture in T-75 flasks using Dulbecco's Modified Eagle's Media (DMEM) with phenol red pH indicator and supplemented with 10% fetal bovine serum (FBS) and 1% penicillin, streptomycin, and glutamine (PSG). The cells were incubated at 37° C. and 5% CO2 in a humidified incubator until desired confluency was achieved. The media was removed from the flask, and the cells were washed 1× with 10 mL of phosphate-buffered saline (PBS; 11.8 mM phosphate, 140.4 mM NaCl; pH 7.4) which was then discarded. To remove the adhered cells from the flask, 2 mL of trypsin was added, and the cells were incubated for 10 minutes. To quench the trypsin, 8 mL of phenol red-free DMEM with 10% FBS and 1% PGS was added, and the cell solution was transferred to a 15 mL conical tube. After the cells were pelleted by centrifugation at 1000 rpm for 5 minutes, the supernatant was poured off and cells resuspended in the volume of phenol red-free media needed for the assay. Cell concentration was determined by counting with a hemocytometer, and the solution was diluted with media until a concentration of 1×10^5 cells/mL was achieved. A 100 μL aliquot of cell solution was added to each well of a 96-well plate, apart from the 3 wells used for a media control. Cells were incubated for 2-3 hours at 37° C. and 5% CO2 until cells were adherent.
# (§3) Compound stocks of 20 mg/mL were used to prepare 2-fold serial dilutions of each compound in sterile water, giving final concentrations of 200, 100, 50, 25, 12.5, 6.25, 3.13 and 1.56 μg/mL. 11.1 μL of prepared compound solutions was added to the appropriate wells in triplicate. A negative vehicle control of sterile water, as well as the aforementioned media control, were used. The plates were incubated for 72 hours at 37° C. and 5% CO2. After incubation, 20 μL of 5 mg/mL 3-(4,5-dimethylthiazol-2-yl)-2,5-diphenyltetrazolium bromide (MTT) in water was added to each well. The plate was incubated for 3 hours at 37° C. and 5% CO2. Media was removed from each well using a sterile glass Pasteur pipette. 100 μL of DMSO was added to each well and incubated for 15 minutes at 37° C. Absorbance was read at 570 nm using a SpectraMax M5 Plate Reader. This MTT assay was performed in biological duplicate unless discrepant results were observed. If this was the case, the assay was performed in biological triplicate for further verification. The reported value is the average of biological replicates with standard deviation.
# [2] = system: HepG2 hepatocellular carcinoma cells; test: Mammalian cytotoxicity, MTT, HepG2; format: cell-based, human
# Protocol: as §1, §2, §3
# C. neoformans [3] = format: cell-based, Cryptococcus neoformans; details: 72 h
# Protocol: The minimum inhibitory concentration (MIC) of peptoids against fungal pathogens C. albicans and C. neoformans was determined following CLSI guidelines (CLSI. Reference method for broth dilution antifungal susceptibility testing of yeasts; approved standard-third edition; CLSI document M27-A3. (Clinical and Laboratory Standards Institute, 2008). […] This inoculant was diluted 1:100 into RPMI-MOPS and then further diluted 1:20 into RPMI-MOPS. 198 μL of inoculant was seeded into each well of a 96 well black-walled plate. 2-fold serial dilutions of 100× peptoid solutions were prepared in water and 2 μL of peptoid were added to each well in triplicate. […] MIC was defined as the lowest concentration of compound preventing fungal growth. This assay was repeated 3 times on separate days with each compound. […] The addition of 0.1 mL cell solution to 9.9 mL of RPMI-MOPS produced a 1:100 cell solution. After vortexing, 0.5 mL of the […] was added to 9.5 mL RPMI-MOPS to produce a 1:20 cell solution. 198 μL of the 1:20 solution was added to the wells of an opaque 96-well plate, apart from the wells designated for the medial control. […] Amphotericin B was used as a positive control, and sterile water was used for the vehicle control. The plates were incubated for 72 hours at 35° C. After incubation, the concentration of compound resulting in no visual growth was recorded as the MIC. All assays performed in biological triplicate on different days.
# [4] = Percent acetonitrile at elution during RP-HPLC purification (hydrophobicity); format: physicochemical; details: percent acetonitrile at the time of elution from HPLC
# Excerpt: All RMG8-8 derivatives were synthesized via the solid-phase submonomer synthesis method on polystyrene Rink Amide resin (Zuckermann et al. Journal of the American Chemical Society 114, 10646-10647 (1992)). The amines used during synthesis and the peptoid shorthand notations for each monomer are provided in Table 7 and Table 8, respectively. Compounds were purified to greater than 95% by RP-HPLC and compound identity was confirmed by ESI-TOF MS (Table 9). The calculated distribution coefficient at pH 7.4 (c Log D7.4) (via Chemaxon. MarvinSketch 19.17.0, 2019) and the percent acetonitrile at the time of elution during HPLC purification were recorded and serve as measures of hydrophobicity (Table 10). Higher values for c Log D7.4 and percent acetonitrile are indicators of increased compound hydrophobicity. With antimicrobial peptoids, hydrophobicity is directly related to both antimicrobial activity and cytotoxicity (Andreev et al. Biochimica et biophysica acta. Biomembranes 1860 6, 1414-1423 (2018); Bolt et al. Med chem comm 8, 886-896 (2017); Frederiksen et al. Molecules 24, (2019)). The ideal balance of these parameters generally must be determined experimentally. To measure antifungal activity, the minimum inhibitory concentration (MIC), defined as the concentration of compound required to inhibit 90% of fungal growth, was determined against C. neoformans using the broth microdilution method. Mammalian cytotoxicity was evaluated through a cell metabolic activity assay with HepG2 liver carcinoma cells, and select, potentially promising compounds were tested for unwanted hemolytic activity against human red blood cells.
# Peptoids were purified via Reversed-Phase High-Performance Liquid Chromatography (RP-HPLC) using a Varian Prepstar SD-1. A gradient of 0-100% water to acetonitrile containing 0.05% TFA made up the mobile phase, and a Supelco Ascentis C18 column (5 μm; 25 cm×21.2 mm; Sigma-Aldrich 581347-U) was used as the stationary phase. Peaks in the chromatogram above 0.1 AU were collected and analyzed via mass spectrometry. The peak product with the desired peptoid was dried down in vacuo and lyophilized overnight. Peptoids were then reconstituted in sterile […] deionized water to create compound stocks of 20 mg/mL.
# C. neoformans [5] = test: microbe, parasite or virus in culture; format: cell-based, Cryptococcus neoformans; details: for MIC: Cryptococcus neoformans, checkerboard, 72 hours at 35° C., read-out: MIC (compound alone); for interpretation of combination with RMG8-8: FICi<0.5 synergistic, 0.5≤FICi≤4 indifferent, FICi>4 antagonist; for Combination MIC RMG8-8:Drug, RMG8-8 part: RMG8-8 concentration in combination with the named drug; for Combination MIC RMG8-8:Drug, Drug part: drug concentration in combination with RMG8-8; for FICi: named drug in combination with RMG8-8
# Protocol: Cell solution was diluted into RPMI-MOPS (1:100) followed by another dilution into RPMI-MOPS (1:20). […] Plates were incubated for 72 hours at 35° C. MIC was determined as the lowest concentration of individual compound or combined compounds inhibiting pathogen growth. Fractional inhibitory concentration index (FICi) was determine using the following equation: FICi values were interpreted as follows: FICi<0.5 synergistic; 0.5≤FICi≤4 indifferent; FICi>4 antagonist (Johnson et al., Antimicrob. Agents Chemother. 48, 693-715 (2004)).
C. neoformans MIC (C. neoformans [3]) [µg/mL],% ACN [4] [%],MIC (C. neoformans [5]) [µg/mL],"Combination MIC RMG8-8:Drug, RMG8-8 part (C. neoformans [5]) [µg/mL]","Combination MIC RMG8-8:Drug, Drug part (C. neoformans [5]) [µg/mL]",SMILES,CC50 at 72 h [1] [µg/mL],HepG2 TD50 [2],interpretation of combination with RMG8-8 (C. neoformans [5]),FICi (C. neoformans [5])
3.13,69.3,,,,CCCCCCCCCCCCCNCC(=O)N(CCCCN)CC(=O)N(CC(=O)N(CC(=O)N(CCN)CC(N)=O)C1CCCCC1)C1CCCCC1 [Compound 3] (H-[N(tridecyl)Gly][Nlys][Gly(N-cHex)][Gly(N-cHex)][Gly(N-2-aminoethyl)]-NH2),105 ± 3.8,,,
25,66.7,,,,CCCCCCCCCCCCCNCC(=O)N(CC(=O)N(CCCCN)CC(=O)N(CCN)CC(=O)N(CC(N)=O)C(C)C)C(C)C [Compound 8] (H-[N(tridecyl)Gly][N(iPr)Gly][Nlys][Gly(N-2-aminoethyl)][N(iPr)Gly]-NH2),> 200,greater than 200 μg/mL,,
1.56 to 3.13,73.3,,,,CCCCCCCCCCCCCNCC(=O)N(CCCCCC)CC(=O)N(CCCCN)CC(=O)N(CCN)CC(=O)N(CCCCCC)CC(N)=O [Compound 10] (H-[N(tridecyl)Gly][NHexGly][Nlys][Gly(N-2-aminoethyl)][NHexGly]-NH2),61 ± 9,,,
6.25,68.1,,,,CCCCCCCCCCCCCNCC(=O)N(CC(=O)N(CCCCN)CC(=O)N(CCN)CC(=O)N(CC(N)=O)C1CCCC1)C1CCCC1 [Compound 11] (H-[N(tridecyl)Gly][Gly(N-cPent)][Nlys][Gly(N-2-aminoethyl)][Gly(N-cPent)]-NH2),> 200,greater than 200 μg/mL,,
1.56 to 3.13,67.7,,,,CCCCCCCCCCCCCNCC(=O)N(CC(=O)N(CCCCN)CC(=O)N(CCN)CC(=O)N(CC(N)=O)c1ccccc1)c1ccccc1 [Compound 14] (H-[N(tridecyl)Gly][NPhGly][Nlys][Gly(N-2-aminoethyl)][NPhGly]-NH2),81 ± 25,,,
,,2,1.56,2,Nc1[nH]c(=O)ncc1F [Flucytosine],,,indifferent,2

# The remaining lines, values behind:
SMILES,C. neoformans MIC (C. neoformans [3]) [µg/mL],% ACN [4] [%],MIC (C. neoformans [5]) [µg/mL],"Combination MIC RMG8-8:Drug, RMG8-8 part (C. neoformans [5]) [µg/mL]","Combination MIC RMG8-8:Drug, Drug part (C. neoformans [5]) [µg/mL]",CC50 at 72 h [1] [µg/mL],HepG2 TD50 [2],interpretation of combination with RMG8-8 (C. neoformans [5]),FICi (C. neoformans [5])
CCCCCCCCCCCCCNCC(=O)N(CC(=O)N(CCCC[N+](C)(C)C)CC(=O)N(CC[N+](C)(C)C)CC(=O)N(CC(N)=O)C1CCCCC1)C1CCCCC1 [Compound 1],12.5,,,,,> 200,> 200 µg/mL,,
CCCCCCCCCCCCCNCC(=O)N(CC(=O)N(CCCCN)CC(=O)N(CCN)CC(=O)N(CC(N)=O)CC1CCCCC1)CC1CCCCC1 [Compound 12] (H-[N(tridecyl)Gly][NCyclohexylmethylGly][Nlys][Gly(N-2-aminoethyl)][NCyclohexylmethylGly]-NH2),1.56 to 3.13,71.4,,,,62 ± 3,,,
CCCCCCCCCCCCCNCC(=O)N(CC(=O)N(CCCCN)CC(=O)N(CCN)CC(=O)N(CC(N)=O)CC1CCCO1)CC1CCCO1 (stereo not shown) [Compound 13],12.5 to 25,67.3,,,,> 200,greater than 200 μg/mL,,
OC(Cn1cncn1)(Cn1cncn1)c1ccc(F)cc1F [Fluconazole],,,2,1.56,2,,,indifferent,2
